Test results from article PMC5291322, “Development of Cell‐Permeable, Non‐Helical Constrained Peptides to Target a Key Protein–Protein Interaction in Ovarian Cancer” (Angewandte Chemie (International Ed. in English), 2016).
Non-standard residues stand in square brackets, D forms with d. Residues, ends and D or L forms follow the SMILES beside them. *: point of attachment. 5TAMRA = CN(C)c1ccc2c(c1)Oc1cc(N(C)C)ccc1C21OC(=O)c2cc(C(=O)*)ccc21; Dap(N3) = [N-]=[N+]=NC[C@H](N)C(=O)O; Aha = [N-]=[N+]=NCC[C@H](N)C(=O)O; Ahx = NCCCCCC(=O)O

Key:
[1] = system: JHOC9 cells; experiment: Cell permeability assay, live-cell confocal fluorescence microscopy; assay type: cell-based; settings: 10 μM TAMRA-labelled peptide in medium, 2 h incubation, Hoechst 33342 in the final 30 min, PBS wash, TAMRA fluorescence read-out, qualitative
Source text: Live‐cell fluorescence microscopy studies were undertaken to assess the cell permeability of the synthesized TAMRA‐labelled linear and constrained peptides (Figure 7).
Figure 7 Cell‐permeability studies for the linear and constrained peptides using JHOC9 cells. Images were taken on a Leica tandem confocal microscope using a 40 X objective.
HEK293T cells were cultivated in Dulbecco’s Modified Eagle medium (DMEM) (1X) supplemented with 5 % foetal bovine serum (FBS) (Invitrogen) and 0.5 % penicillin/streptomycin (P/S). CCC cell lines PEO1, JHOC5, JHOC7, JHOC9, OVISE, SKOV3 and Normal Ovarian Surface Epithelial (IOSE) cells were grown in RPMI 1640 medium (1X) supplemented with 10 % FBS and 1 % P/S. All cell lines were maintained at 37 °C in 5 % CO2 and were mycoplasma tested on a regular basis (Biorepository Core, CRUK CI, Cambridge). Cell counts were conducted using the Vi-CELL Cell Viability Analyzer. […]
Cell permeability assay and confocal microscopy
Cells were grown in chambered coverslips (μ–Slide 8 Well ibiTreat, Ibidi) for live-cell imaging. When the desired degree of confluency was reached, the medium was replaced with 10 μM solutions of constrained peptides in medium. For live-cell imaging, cells were incubated with the constrained peptide solutions for 2 h and during the final 30 min, Hoechst stain 33342 (1 μM, Thermo Fisher Scientific) was added. Cells were washed with PBS before live-cell imaging. Fresh medium was added and cells were imaged live using a Leica Tandem confocal microscope. Images were generated as a maximum intensity projection of five z-stacked […]
Aldrich, Mission RNAi, TRC2-pLKO-puro Vector) were used. All plasmids were confirmed by restriction digest and agarose gel electrophoresis.
For each transfection sample 16 μg transfer vector, 10.4 μg pMDL/pRRE, 4 μg pRSV-Rev and 5.6 μg pVSV-G were used. Lentiviruses were produced in the HEK293T packaging cell line. The day before transfection, 16 x 10^6 HEK293T cells were plated in […] (Corning) using Opti-MEM reduced-serum medium (30 mL, 1 X, Invitrogen) so that cells were 90–95 % confluent on the day of transfection. After 24 h the medium was removed and replaced with DMEM growth medium (16 mL, Invitrogen) containing serum. For each transfection sample DNA-Lipofectamine complexes were prepared as follows: In a sterile 15 mL tube, 16 μg transfer vector, 10.4 μg pMDL/pRRE, 4 μg pRSV-REV and 5.6 μg pVSV-G were diluted in Opti-MEM medium (5 mL). In a separate sterile 15 mL tube, Lipofectamine 2000 (115 μL, Life Technologies) was diluted in Opti-MEM medium (5 mL). Both solutions were incubated for 5 min at room temperature and then combined.
Incubation for 20 min at room temperature allowed DNA-Lipofectamine complexes to form, which were then added dropwise to each plate of HEK293T cells. […]

[2] = target: T1, mImportin α1 ΔIBB (Mus musculus, UniProt P52293); experiment: Direct fluorescence polarisation (FP) binding assay; settings: 60 nM TAMRA-labelled peptide, 15-point 2.0-fold serial dilutions of mImportin α1 ΔIBB, 20 mM HEPES pH 8, 200 mM NaCl, 15 min at room temperature, ex 540/em 590 nm, one-site model, triplicates, read-out: Kd, direct FP assay binding affinity
T1 construct: made in house; host or cells: E. coli BL21 (DE3) CodonPlus-RIL
Procedure: The unconstrained peptides Pep1 and Pep2, as well as four constrained peptides, were synthesized. Their binding affinities for mImportin α1 ΔIBB were evaluated in fluorescence polarization assays (Figure 5 C). […]
Direct Fluorescence Polarisation Assay
Dissociation constants (Kd) for the interaction of TAMRA-5-labelled stapled peptides with mImportin α1 ΔIBB were determined by direct fluorescence polarisation (FP) measurement. TAMRA-5 belongs to the family of rhodamine dyes and has been used extensively for the study of PPIs and DNA-protein interactions by FP assays.[31-32] The mImportin α1 ΔIBB isoform was used since it is well characterised and has been used previously.[33] A one-site binding model was assumed with mImportin α1. mImportin α1 ΔIBB protein was purified in FP buffer (20 mM HEPES (pH 8), 200 mM NaCl) and 1 mM stock solutions of peptides were made up in FP buffer with 3 % v/v DMSO. Accurate mImportin α1 ΔIBB and stapled peptide concentrations were determined by amino acid analysis (PNAC facilities, Department of Biochemistry, University of Cambridge). 15-point dose-response curves were constructed using 2.0-fold serial dilutions of mImportin α1 ΔIBB in a mixture with a final concentration of 60 nM TAMRA-labelled peptide. 20 μL reaction volumes were pipetted into […] black polystyrene assay plates (Corning 384 Well Low Flange Black Flat

| SMILES | cell permeability [1] | Kd [2] [µM] |
| --- | --- | --- |
| CN(C)c1ccc2c(-c3ccc(C(=O)O)cc3C(=O)[O-])c3ccc(N(C)C)cc3[o+]c2c1 [TAMRA-5, 5-CARBOXYTETRAMETHYLRHODAMINE, reference compound] |  | ~122 |
| CSCC[C@@H]1NC(=O)[C@H](CCCCN)NC(=O)[C@H](CCCCN)NC(=O)[C@@H](NC(=O)[C@@H](NC(=O)CCCCCNC(=O)c2ccc3c(c2)C(=O)OC32c3ccc(N(C)C)cc3Oc3cc(N(C)C)ccc32)[C@@H](C)O)Cn2cc(nn2)CCCNC(=O)NCCCc2cn(nn2)C[C@@H](C(=O)N[C@@H](CCCNC(=N)N)C(N)=O)NC(=O)[C@H](CCCNC(=N)N)NC(=O)[C@H](CCCNC(=N)N)NC1=O [Pep1C] |  | 55.9 ± 2.43 |
| CSCC[C@@H]1NC(=O)[C@H](CCCCN)NC(=O)[C@H](CCCCN)NC(=O)[C@@H](NC(=O)[C@@H](NC(=O)CCCCCNC(=O)c2ccc3c(c2)C(=O)OC32c3ccc(N(C)C)cc3Oc3cc(N(C)C)ccc32)[C@@H](C)O)Cn2cc(nn2)CNC(=O)NCc2cn(nn2)C[C@@H](C(=O)N[C@@H](CCCNC(=N)N)C(N)=O)NC(=O)[C@H](CCCNC(=N)N)NC(=O)[C@H](CCCNC(=N)N)NC1=O [Pep1A] |  | 95.9 ± 27.3 |

These reach a lower Kd [2]. Values come first.

| cell permeability [1] | Kd [2] [µM] | SMILES |
| --- | --- | --- |
| retained their cell permeability | 4.54 | CSCC[C@@H]1NC(=O)[C@H](CCCCN)NC(=O)[C@H](CCCCN)NC(=O)[C@@H](NC(=O)[C@@H](NC(=O)CCCCCNC(=O)c2ccc3c(c2)C(=O)OC32c3ccc(N(C)C)cc3Oc3cc(N(C)C)ccc32)[C@@H](C)O)CCn2cc(nn2)CNC(=O)NCc2cn(nn2)CC[C@@H](C(=O)N[C@@H](CCCNC(=N)N)C(N)=O)NC(=O)[C@H](CCCNC(=N)N)NC(=O)[C@H](CCCNC(=N)N)NC1=O [Pep2A] |
| retained their cell permeability | 48.2 ± 4.88 | CSCC[C@@H]1NC(=O)[C@H](CCCCN)NC(=O)[C@H](CCCCN)NC(=O)[C@@H](NC(=O)[C@@H](NC(=O)CCCCCNC(=O)c2ccc3c(c2)C(=O)OC32c3ccc(N(C)C)cc3Oc3cc(N(C)C)ccc32)[C@@H](C)O)Cn2cc(nn2)CCNC(=O)NCCc2cn(nn2)C[C@@H](C(=O)N[C@@H](CCCNC(=N)N)C(N)=O)NC(=O)[C@H](CCCNC(=N)N)NC(=O)[C@H](CCCNC(=N)N)NC1=O [Pep1B] |
| good cell permeability | 6.84 ± 0.26 | CSCC[C@H](NC(=O)[C@H](CCCCN)NC(=O)[C@H](CCCCN)NC(=O)[C@H](CCN=[N+]=[N-])NC(=O)[C@@H](NC(=O)CCCCCNC(=O)c1ccc2c(c1)C(=O)OC21c2ccc(N(C)C)cc2Oc2cc(N(C)C)ccc21)[C@@H](C)O)C(=O)N[C@@H](CCCNC(=N)N)C(=O)N[C@@H](CCCNC(=N)N)C(=O)N[C@@H](CCN=[N+]=[N-])C(=O)N[C@@H](CCCNC(=N)N)C(N)=O [Pep2] ({5TAMRA-Ahx}-T[Aha]KKMRR[Aha]R-NH2) |
| good cell permeability | 2.06 ± 0.07 | CSCC[C@H](NC(=O)[C@H](CCCCN)NC(=O)[C@H](CCCCN)NC(=O)[C@H](CN=[N+]=[N-])NC(=O)[C@@H](NC(=O)CCCCCNC(=O)c1ccc2c(c1)C(=O)OC21c2ccc(N(C)C)cc2Oc2cc(N(C)C)ccc21)[C@@H](C)O)C(=O)N[C@@H](CCCNC(=N)N)C(=O)N[C@@H](CCCNC(=N)N)C(=O)N[C@@H](CN=[N+]=[N-])C(=O)N[C@@H](CCCNC(=N)N)C(N)=O [Pep1] ({5TAMRA-Ahx}-T[Dap(N3)]KKMRR[Dap(N3)]R-NH2) |
